Read-outs that look alike come from different tables or passages of the source.
What was measured:
CDK11A/Cyclin L2 = target: T1, CDK11A/Cyclin L2 (Homo sapiens, UniProt Q9UQ88); assay: NanoBRET live-cell target engagement, CDK11A-NanoLuc/Cyclin L2 in HEK-293; type: binding; settings: for inhibition at 10 µM: read-out: CDK11a/L2 Inhibition at 10µM (%); for IC50: read-out: CDK11a/L2 IC50
T1 sequence (Q9UQ88 1-783): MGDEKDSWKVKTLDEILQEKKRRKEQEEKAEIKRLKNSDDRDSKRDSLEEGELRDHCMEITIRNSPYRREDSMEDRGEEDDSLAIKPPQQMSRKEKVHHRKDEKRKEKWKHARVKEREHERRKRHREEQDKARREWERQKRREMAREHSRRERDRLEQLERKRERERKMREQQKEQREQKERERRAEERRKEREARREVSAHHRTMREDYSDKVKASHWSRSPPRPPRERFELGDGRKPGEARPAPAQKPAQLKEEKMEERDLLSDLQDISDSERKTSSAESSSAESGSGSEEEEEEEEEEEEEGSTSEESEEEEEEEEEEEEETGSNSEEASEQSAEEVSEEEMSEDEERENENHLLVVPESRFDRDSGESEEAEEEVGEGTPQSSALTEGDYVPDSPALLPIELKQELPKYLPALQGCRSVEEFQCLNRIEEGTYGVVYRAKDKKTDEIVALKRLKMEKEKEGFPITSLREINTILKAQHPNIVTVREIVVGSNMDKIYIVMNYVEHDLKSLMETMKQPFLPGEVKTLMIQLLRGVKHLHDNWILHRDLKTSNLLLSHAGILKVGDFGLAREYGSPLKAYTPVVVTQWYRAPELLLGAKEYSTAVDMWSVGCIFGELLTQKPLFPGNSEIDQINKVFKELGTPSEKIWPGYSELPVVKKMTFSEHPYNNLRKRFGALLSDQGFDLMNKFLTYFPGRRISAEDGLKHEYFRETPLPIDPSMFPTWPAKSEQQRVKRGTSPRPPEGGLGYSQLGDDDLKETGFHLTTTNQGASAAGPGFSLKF

CDK11B/Cyclin L2 = CDK11B/Cyclin L2 (Homo sapiens, UniProt P21127); assay: NanoBRET live-cell target engagement, CDK11B-NanoLuc/Cyclin L2 in HEK-293; type: binding; settings: for inhibition at 10 µM: read-out: CDK11b/L2 Inhibition at 10µM (%); for IC50: read-out: CDK11b/L2 IC50
CDK14/Cyclin Y = CDK14/Cyclin Y (Homo sapiens, UniProt O94921); assay: NanoBRET live-cell target engagement, CDK14-NanoLuc/Cyclin Y in HEK-293; type: binding; settings: for inhibition at 10 µM: read-out: CDK14/Y Inhibition at 10µM (%)
CDK15/Cyclin Y = CDK15/Cyclin Y (Homo sapiens, UniProt Q96Q40); assay: NanoBRET live-cell target engagement, NanoLuc-CDK15/Cyclin Y in HEK-293; type: binding; settings: for inhibition at 10 µM: read-out: CDK15/Y Inhibition at 10µM (%); for IC50: read-out: CDK15/Y IC50
CDK16/Cyclin Y = CDK16/Cyclin Y (Homo sapiens, UniProt Q00536); assay: NanoBRET live-cell target engagement, CDK16-NanoLuc/Cyclin Y in HEK-293; type: binding; settings: 10µM, read-out: CDK16/Y Inhibition at 10µM (%)
CDK17/Cyclin Y = CDK17/Cyclin Y (Homo sapiens, UniProt Q00537); assay: NanoBRET live-cell target engagement, CDK17-NanoLuc/Cyclin Y in HEK-293; type: binding; settings: for inhibition at 10 µM: read-out: CDK17/Y Inhibition at 10µM (%); for IC50: read-out: CDK17/Y IC50
CDK18/Cyclin Y = CDK18/Cyclin Y (Homo sapiens, UniProt Q07002); assay: NanoBRET live-cell target engagement, CDK18-NanoLuc/Cyclin Y in HEK-293; type: binding; settings: for inhibition at 10 µM: read-out: CDK18/Y Inhibition at 10µM (%); for IC50: read-out: CDK18/Y IC50
CDK20/Cyclin H = CDK20/Cyclin H (Homo sapiens, UniProt Q8IZL9); assay: NanoBRET live-cell target engagement, NanoLuc-CDK20/Cyclin H in HEK-293; type: binding; settings: 10µM, read-out: CDK20/H Inhibition at 10µM (%)
CDK19/Cyclin C = CDK19/Cyclin C (Homo sapiens, UniProt Q9BWU1); assay: NanoBRET live-cell target engagement, NanoLuc-CDK19/Cyclin C in HEK-293; settings: read-out: CDK19/C Inhibition at 10µM (%), 10µM
CDK10/Cyclin L2 = CDK10/Cyclin L2 (Homo sapiens, UniProt Q15131); assay: NanoBRET live-cell target engagement, CDK10-NanoLuc/Cyclin L2 in HEK-293; settings: for inhibition at 10 µM: read-out: CDK10/L2 Inhibition at 10µM (%), 10µM
CDK10/Cyclin L2, sequence (Q15131 whole entry): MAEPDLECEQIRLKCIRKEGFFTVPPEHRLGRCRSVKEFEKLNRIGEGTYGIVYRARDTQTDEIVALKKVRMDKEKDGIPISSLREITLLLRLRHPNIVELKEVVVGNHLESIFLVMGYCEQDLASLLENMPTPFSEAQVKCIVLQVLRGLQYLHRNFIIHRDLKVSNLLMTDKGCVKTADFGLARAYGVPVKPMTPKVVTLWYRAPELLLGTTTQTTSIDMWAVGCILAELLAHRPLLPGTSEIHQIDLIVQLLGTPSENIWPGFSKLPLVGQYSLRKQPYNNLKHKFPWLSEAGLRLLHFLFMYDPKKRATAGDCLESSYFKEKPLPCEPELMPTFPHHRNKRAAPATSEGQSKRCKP

CDK11B/Cyclin L2, sequence (P21127 1-782 isoform P21127-2): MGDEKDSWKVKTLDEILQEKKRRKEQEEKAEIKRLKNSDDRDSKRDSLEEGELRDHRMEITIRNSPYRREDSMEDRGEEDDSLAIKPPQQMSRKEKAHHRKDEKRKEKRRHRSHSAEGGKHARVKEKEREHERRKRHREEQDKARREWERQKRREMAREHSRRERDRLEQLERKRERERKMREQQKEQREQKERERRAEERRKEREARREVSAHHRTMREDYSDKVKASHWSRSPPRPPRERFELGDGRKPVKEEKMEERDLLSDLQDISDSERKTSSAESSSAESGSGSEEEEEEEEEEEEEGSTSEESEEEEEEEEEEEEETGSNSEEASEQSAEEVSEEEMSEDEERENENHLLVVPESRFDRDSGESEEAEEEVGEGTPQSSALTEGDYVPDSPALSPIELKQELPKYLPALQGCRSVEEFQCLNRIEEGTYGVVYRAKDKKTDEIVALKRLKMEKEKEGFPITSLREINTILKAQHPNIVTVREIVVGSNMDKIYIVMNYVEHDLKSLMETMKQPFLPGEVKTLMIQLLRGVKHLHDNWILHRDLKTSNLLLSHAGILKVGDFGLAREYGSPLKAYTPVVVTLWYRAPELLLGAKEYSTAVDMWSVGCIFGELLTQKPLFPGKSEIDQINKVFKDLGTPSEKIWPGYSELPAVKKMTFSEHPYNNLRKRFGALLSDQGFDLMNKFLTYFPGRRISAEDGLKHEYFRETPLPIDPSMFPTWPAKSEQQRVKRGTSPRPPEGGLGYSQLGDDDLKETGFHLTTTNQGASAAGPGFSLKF
CDK19/Cyclin C, sequence (Q9BWU1 whole entry): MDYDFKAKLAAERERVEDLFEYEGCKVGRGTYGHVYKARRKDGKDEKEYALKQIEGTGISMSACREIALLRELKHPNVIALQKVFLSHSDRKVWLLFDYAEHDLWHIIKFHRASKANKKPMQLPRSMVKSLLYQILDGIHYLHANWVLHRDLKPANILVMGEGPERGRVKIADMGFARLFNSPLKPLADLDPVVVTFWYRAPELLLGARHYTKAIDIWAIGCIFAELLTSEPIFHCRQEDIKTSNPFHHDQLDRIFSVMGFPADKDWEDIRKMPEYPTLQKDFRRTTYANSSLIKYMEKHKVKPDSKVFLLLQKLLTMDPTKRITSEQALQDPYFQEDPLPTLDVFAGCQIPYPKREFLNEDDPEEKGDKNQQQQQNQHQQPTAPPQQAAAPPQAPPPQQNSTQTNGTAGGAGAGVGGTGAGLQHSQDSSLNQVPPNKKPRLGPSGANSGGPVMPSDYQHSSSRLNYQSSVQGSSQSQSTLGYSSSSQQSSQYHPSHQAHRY
CDK19/Cyclin C, sequence (P24863 whole entry partner): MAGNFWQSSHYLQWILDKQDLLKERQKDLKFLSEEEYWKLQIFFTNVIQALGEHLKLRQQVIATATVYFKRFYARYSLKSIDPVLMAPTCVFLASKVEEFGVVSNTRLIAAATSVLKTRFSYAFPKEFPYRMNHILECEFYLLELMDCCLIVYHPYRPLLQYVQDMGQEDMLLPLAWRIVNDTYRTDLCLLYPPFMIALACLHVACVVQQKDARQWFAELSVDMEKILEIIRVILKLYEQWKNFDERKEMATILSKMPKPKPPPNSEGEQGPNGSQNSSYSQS
CDK17/Cyclin Y, sequence (Q00537 whole entry): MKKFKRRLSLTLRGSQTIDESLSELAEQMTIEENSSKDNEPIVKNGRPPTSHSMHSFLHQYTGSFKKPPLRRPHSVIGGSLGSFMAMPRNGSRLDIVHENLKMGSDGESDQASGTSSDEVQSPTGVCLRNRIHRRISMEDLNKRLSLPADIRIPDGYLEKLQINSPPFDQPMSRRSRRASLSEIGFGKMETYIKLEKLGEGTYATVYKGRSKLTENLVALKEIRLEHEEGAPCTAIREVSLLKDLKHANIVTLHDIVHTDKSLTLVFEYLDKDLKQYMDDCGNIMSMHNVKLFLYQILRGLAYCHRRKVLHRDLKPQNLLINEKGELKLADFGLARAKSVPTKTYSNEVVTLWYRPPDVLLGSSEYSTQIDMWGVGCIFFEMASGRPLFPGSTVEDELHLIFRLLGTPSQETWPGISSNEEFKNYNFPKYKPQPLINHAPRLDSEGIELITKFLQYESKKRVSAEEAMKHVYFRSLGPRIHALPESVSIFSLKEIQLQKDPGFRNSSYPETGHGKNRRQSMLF
CDK17/Cyclin Y, sequence (Q8ND76 whole entry partner): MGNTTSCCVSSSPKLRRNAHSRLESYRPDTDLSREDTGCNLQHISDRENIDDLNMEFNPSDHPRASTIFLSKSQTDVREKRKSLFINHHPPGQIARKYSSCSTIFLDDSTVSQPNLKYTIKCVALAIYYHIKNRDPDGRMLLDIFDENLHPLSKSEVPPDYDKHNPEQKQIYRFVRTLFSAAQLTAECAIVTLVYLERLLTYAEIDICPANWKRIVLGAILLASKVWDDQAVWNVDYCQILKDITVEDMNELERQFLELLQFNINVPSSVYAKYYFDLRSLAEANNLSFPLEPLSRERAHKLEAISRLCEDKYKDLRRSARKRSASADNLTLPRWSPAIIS
CDK14/Cyclin Y, sequence (O94921 whole entry): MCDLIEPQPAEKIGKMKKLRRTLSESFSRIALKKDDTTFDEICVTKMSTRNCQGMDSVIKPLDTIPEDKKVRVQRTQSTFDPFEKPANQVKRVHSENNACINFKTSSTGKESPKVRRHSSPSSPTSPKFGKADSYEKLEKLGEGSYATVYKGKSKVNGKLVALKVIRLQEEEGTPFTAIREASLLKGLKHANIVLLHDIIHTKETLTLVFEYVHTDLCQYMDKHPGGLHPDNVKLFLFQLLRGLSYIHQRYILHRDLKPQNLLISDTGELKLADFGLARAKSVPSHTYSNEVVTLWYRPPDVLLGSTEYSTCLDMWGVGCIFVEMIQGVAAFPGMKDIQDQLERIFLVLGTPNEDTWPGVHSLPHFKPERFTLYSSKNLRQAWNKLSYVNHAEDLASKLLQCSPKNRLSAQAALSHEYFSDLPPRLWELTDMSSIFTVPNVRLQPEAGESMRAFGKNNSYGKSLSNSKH
CDK14/Cyclin Y, sequence (Q8ND76 whole entry partner): as the sequence (Q8ND76 whole entry partner) above
CDK18/Cyclin Y, sequence (Q07002 whole entry): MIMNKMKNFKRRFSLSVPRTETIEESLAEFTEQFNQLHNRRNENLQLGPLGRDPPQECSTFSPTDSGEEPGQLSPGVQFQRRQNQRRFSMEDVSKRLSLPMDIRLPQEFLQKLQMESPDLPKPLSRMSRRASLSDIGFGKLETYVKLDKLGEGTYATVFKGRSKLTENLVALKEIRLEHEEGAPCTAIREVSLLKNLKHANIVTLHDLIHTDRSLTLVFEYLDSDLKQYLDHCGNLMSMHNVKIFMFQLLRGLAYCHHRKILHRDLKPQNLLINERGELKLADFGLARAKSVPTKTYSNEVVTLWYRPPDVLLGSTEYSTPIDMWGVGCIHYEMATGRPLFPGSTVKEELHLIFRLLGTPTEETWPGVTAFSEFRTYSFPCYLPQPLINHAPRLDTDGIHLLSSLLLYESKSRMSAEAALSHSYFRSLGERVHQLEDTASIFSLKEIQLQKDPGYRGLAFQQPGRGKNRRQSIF
CDK18/Cyclin Y, sequence (Q8ND76 whole entry partner): as the sequence (Q8ND76 whole entry partner) above
CDK15/Cyclin Y, sequence (Q96Q40 whole entry): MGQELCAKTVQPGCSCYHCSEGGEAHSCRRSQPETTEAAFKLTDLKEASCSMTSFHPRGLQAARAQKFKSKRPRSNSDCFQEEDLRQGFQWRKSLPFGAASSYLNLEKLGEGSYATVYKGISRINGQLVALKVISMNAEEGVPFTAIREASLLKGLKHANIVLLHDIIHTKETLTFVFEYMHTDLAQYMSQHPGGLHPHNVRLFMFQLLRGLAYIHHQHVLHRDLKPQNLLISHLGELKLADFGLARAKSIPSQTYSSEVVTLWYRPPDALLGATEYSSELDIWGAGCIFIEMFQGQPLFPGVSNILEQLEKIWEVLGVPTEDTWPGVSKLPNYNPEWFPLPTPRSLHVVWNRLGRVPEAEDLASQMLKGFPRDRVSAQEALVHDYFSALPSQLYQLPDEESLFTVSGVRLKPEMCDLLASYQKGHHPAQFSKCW
CDK15/Cyclin Y, sequence (Q8ND76 whole entry partner): as the sequence (Q8ND76 whole entry partner) above
CDK16/Cyclin Y, sequence (Q00536 whole entry): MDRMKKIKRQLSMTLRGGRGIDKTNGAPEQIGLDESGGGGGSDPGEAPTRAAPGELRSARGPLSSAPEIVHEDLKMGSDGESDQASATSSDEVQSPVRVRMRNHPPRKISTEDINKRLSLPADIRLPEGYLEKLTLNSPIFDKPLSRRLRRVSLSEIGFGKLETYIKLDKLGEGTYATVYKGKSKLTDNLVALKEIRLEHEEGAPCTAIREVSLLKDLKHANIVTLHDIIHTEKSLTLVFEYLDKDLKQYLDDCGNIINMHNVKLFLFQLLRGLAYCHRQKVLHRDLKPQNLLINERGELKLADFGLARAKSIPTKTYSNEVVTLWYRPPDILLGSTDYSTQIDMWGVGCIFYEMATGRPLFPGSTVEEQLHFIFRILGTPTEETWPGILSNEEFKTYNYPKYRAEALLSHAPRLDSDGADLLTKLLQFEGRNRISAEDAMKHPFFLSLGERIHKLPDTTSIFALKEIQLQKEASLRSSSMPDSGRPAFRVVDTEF
CDK16/Cyclin Y, sequence (Q8ND76 whole entry partner): as the sequence (Q8ND76 whole entry partner) above

**Q.** How did the inhibition at 10 µM (CDK11A/Cyclin L2; independent experiment 1) turn out when `CN1C/C=C/CCOc2cccc(c2)-c2ccnc(n2)Nc2cccc(c2)C1` [SB1317] was run?
**A.** 93.3%

**Q.** What about the inhibition at 10 µM (CDK11A/Cyclin L2; independent experiment 2) of the same compound?
**A.** 97.9%

**Q.** And the IC50 (CDK11A/Cyclin L2; average (± SEM where n=3))?
**A.** 190 nM

**Q.** And the IC50 (CDK11A/Cyclin L2; independent experiment 1)?
**A.** 200 nM

**Q.** And the IC50 (CDK11A/Cyclin L2; independent experiment 2)?
**A.** 180 nM

**Q.** What about the inhibition at 10 µM (CDK11B/Cyclin L2; average of experiments) of the same compound?
**A.** 94.9%

**Q.** And the inhibition at 10 µM (CDK11B/Cyclin L2; independent experiment 1)?
**A.** 95.5%

**Q.** And the inhibition at 10 µM (CDK11B/Cyclin L2; independent experiment 2)?
**A.** 94.4%

**Q.** And the IC50 (CDK11B/Cyclin L2; average (± SEM where n=3))?
**A.** 51 nM

**Q.** And the IC50 (CDK11B/Cyclin L2; independent experiment 1)?
**A.** 49 nM

**Q.** And the IC50 (CDK11B/Cyclin L2; independent experiment 2)?
**A.** 54 nM

**Q.** What about the inhibition at 10 µM (CDK14/Cyclin Y; average of experiments) of the same compound?
**A.** 97.2%

**Q.** And the inhibition at 10 µM (CDK14/Cyclin Y; independent experiment 1)?
**A.** 96%

**Q.** And the inhibition at 10 µM (CDK14/Cyclin Y; independent experiment 2)?
**A.** 98.5%

**Q.** And the IC50 (CDK14/Cyclin Y; average (± SEM where n=3), read-out: CDK14/Y IC50)?
**A.** 29 nM

**Q.** And the IC50 (CDK14/Cyclin Y; independent experiment 1, read-out: CDK14/Y IC50)?
**A.** 28 nM

**Q.** And the IC50 (CDK14/Cyclin Y; independent experiment 2, read-out: CDK14/Y IC50)?
**A.** 29 nM

**Q.** And the IC50 (CDK14/Cyclin Y; live HEK-293, 2 h, mean ± S.E.M. (n=3) or mean (n=2), read-out: IC50 for CDK/cyclin complexes, CDK14/Y)?
**A.** 29 nM

**Q.** What about the inhibition at 10 µM (CDK15/Cyclin Y; average of experiments) of the same compound?
**A.** 98.1%

**Q.** And the inhibition at 10 µM (CDK15/Cyclin Y; independent experiment 1)?
**A.** 97.4%

**Q.** What about the inhibition at 10 µM (CDK15/Cyclin Y; independent experiment 2) of the same compound?
**A.** 98.7%

**Q.** What about the IC50 (CDK15/Cyclin Y; average (± SEM where n=3)) of the same compound?
**A.** 58 nM

**Q.** What about the IC50 (CDK15/Cyclin Y; independent experiment 1) of the same compound?
**A.** 55 nM

**Q.** What about the IC50 (CDK15/Cyclin Y; independent experiment 2) of the same compound?
**A.** 61 nM

**Q.** And the inhibition at 10 µM (CDK16/Cyclin Y; independent experiment 1)?
**A.** 96.3%

**Q.** And the inhibition at 10 µM (CDK16/Cyclin Y; independent experiment 2)?
**A.** 92.9%

**Q.** And the inhibition at 10 µM (CDK17/Cyclin Y; average of experiments)?
**A.** 94.8%

**Q.** And the inhibition at 10 µM (CDK17/Cyclin Y; independent experiment 1)?
**A.** 96.6%

**Q.** And the inhibition at 10 µM (CDK17/Cyclin Y; independent experiment 2)?
**A.** 93.1%

**Q.** What about the IC50 (CDK17/Cyclin Y; average (± SEM where n=3)) of the same compound?
**A.** 49 nM

**Q.** What about the IC50 (CDK17/Cyclin Y; independent experiment 1) of the same compound?
**A.** 50 nM

**Q.** And the IC50 (CDK17/Cyclin Y; independent experiment 2)?
**A.** 47 nM

**Q.** And the inhibition at 10 µM (CDK18/Cyclin Y; average of experiments)?
**A.** 101%

**Q.** And the inhibition at 10 µM (CDK18/Cyclin Y; independent experiment 1)?
**A.** 98.4%

**Q.** What about the inhibition at 10 µM (CDK18/Cyclin Y; independent experiment 2) of the same compound?
**A.** 103%

**Q.** What about the IC50 (CDK18/Cyclin Y; average (± SEM where n=3)) of the same compound?
**A.** 82 nM

**Q.** And the IC50 (CDK18/Cyclin Y; independent experiment 1)?
**A.** 99 nM

**Q.** What about the IC50 (CDK18/Cyclin Y; independent experiment 2) of the same compound?
**A.** 65 nM

**Q.** What about the inhibition at 10 µM (CDK20/Cyclin H; independent experiment 1) of the same compound?
**A.** 79.2%

**Q.** And the inhibition at 10 µM (CDK20/Cyclin H; independent experiment 2)?
**A.** 82.8%

**Q.** What about the inhibition at 10 µM (CDK19/Cyclin C; average of experiments) of the same compound?
**A.** 74.8%

**Q.** What about the inhibition at 10 µM (CDK19/Cyclin C; independent experiment 1) of the same compound?
**A.** 62.1%

**Q.** What about the inhibition at 10 µM (CDK19/Cyclin C; independent experiment 2) of the same compound?
**A.** 87.4%

**Q.** And the IC50 (CDK10/Cyclin L2; CDK10/L2 IC50 (nM), average (± SEM where n=3))?
**A.** 520 nM

**Q.** What about the IC50 (CDK10/Cyclin L2; CDK10/L2 IC50 (nM), independent experiment 1) of the same compound?
**A.** 530 nM

**Q.** And the IC50 (CDK10/Cyclin L2; CDK10/L2 IC50 (nM), independent experiment 2)?
**A.** 520 nM

**Q.** What about the IC50 (CDK10/Cyclin L2; IC50 for CDK/cyclin complexes, CDK10/L2, live HEK-293, 2 h, mean ± S.E.M. (n=3) or mean (n=2)) of the same compound?
**A.** 520 nM

**Q.** And the inhibition at 10 µM (CDK10/Cyclin L2; average of experiments)?
**A.** 88%

**Q.** And the inhibition at 10 µM (CDK10/Cyclin L2; independent experiment 1)?
**A.** 81.7%

**Q.** What about the inhibition at 10 µM (CDK10/Cyclin L2; independent experiment 2) of the same compound?
**A.** 94.4%
